Experimental data taken from article PMC11676982, “Heterotropic Activation of Cytochrome P450 3A4 by Perillyl Alcohol” (Pharmaceutics, 2024).

Experiments:
CYP2A6 [1] = molecular target: T1, CYP2A6 (Homo sapiens, UniProt P11509); test: Metabolism-dependent inhibition assay (IC50 shift) in pooled HLMs, CYP2A6; details: substrate coumarin; for IC50: CYP2A6, pooled HLMs, 95% CI in parentheses
T1 sequence (P11509 1-494): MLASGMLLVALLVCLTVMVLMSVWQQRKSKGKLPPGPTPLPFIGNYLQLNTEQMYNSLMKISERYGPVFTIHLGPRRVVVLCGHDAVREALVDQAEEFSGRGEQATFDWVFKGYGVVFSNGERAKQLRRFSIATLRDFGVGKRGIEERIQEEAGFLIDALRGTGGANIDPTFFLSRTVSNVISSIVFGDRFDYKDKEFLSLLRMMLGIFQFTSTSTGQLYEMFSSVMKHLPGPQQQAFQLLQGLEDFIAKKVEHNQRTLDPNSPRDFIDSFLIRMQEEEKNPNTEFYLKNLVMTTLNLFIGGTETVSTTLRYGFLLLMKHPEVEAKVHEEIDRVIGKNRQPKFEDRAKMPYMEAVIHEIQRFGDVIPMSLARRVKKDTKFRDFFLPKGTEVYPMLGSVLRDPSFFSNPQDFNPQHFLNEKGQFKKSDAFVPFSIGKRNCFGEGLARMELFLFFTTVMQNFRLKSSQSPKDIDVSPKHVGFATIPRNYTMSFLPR
Procedure: The experiments for determining metabolism-dependent inhibition were conducted utilizing a non-dilution method. […] The pre-incubation was initiated by the addition of 1 mM NADPH and incubation for 30 min. Subsequently, final incubation was performed with the addition of a substrate (5 μM coumarin or 50 μM bupropion) in the presence of NADPH for 10 min; the total volume of the mixture was 200 μL. […] Mixtures were subjected to centrifugation at 3000× g for 20 min at 4 °C, and the supernatants were analyzed using LC-MS/MS. The experiment was performed using three separate samples.
The CYP-mediated activities in the presence of test substances were expressed as percentages of the corresponding control values.

CYP3A4 [2] = molecular target: T2, CYP3A4 (Homo sapiens, UniProt P08684)
T2 sequence (P08684 whole entry): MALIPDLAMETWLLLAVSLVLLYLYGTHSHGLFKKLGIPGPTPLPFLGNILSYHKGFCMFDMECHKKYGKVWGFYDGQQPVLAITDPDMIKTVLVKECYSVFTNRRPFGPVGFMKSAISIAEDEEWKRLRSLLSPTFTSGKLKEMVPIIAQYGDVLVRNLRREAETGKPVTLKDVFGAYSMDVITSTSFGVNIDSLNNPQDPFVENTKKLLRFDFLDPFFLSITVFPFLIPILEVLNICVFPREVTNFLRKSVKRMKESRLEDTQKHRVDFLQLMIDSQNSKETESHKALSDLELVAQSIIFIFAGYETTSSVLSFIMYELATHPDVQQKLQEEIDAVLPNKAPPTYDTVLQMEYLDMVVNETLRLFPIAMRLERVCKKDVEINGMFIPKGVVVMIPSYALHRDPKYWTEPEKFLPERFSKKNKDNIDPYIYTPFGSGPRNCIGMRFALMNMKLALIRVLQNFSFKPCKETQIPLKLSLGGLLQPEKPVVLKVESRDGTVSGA

CYP2A6 [3] = molecular target: T1, CYP2A6; test: Determination of CYP inhibition mode and Ki in pooled HLMs, CYP2A6-mediated coumarin 7-hydroxylation
Procedure: (§2) A 5 min pre-incubation was performed prior to initiating reactions with the addition of 1 mM NADPH. After incubation at 37 °C for 10 min, 200 μL of ice-cold acetonitrile containing 100 nM carbamazepine as an internal standard was added to terminate the reaction. The samples were agitated and centrifuged at 4 °C for 20 min at 3000× g. The supernatants were transferred to a 96-well plate for LC-MS/MS analysis. The experiment was performed using three separate samples.
(§3) Data acquired from the evaluation of enzyme inhibition using various concentrations of substrates and test compounds were fit to different models (competitive, noncompetitive, uncompetitive, or mixed), and inhibition constant (Ki) and goodness of fit values were obtained using GraphPad Prism. The appropriate type of inhibition was selected based on statistical goodness of fit tests including Akaike’s information criterion (AICc) with correction for small sample size and the standard deviation of the residuals (Sy.x).

CYP1A2 = molecular target: T3, CYP1A2 (Homo sapiens, UniProt P05177); test: Direct CYP inhibition assay in pooled HLMs, CYP1A2 (phenacetin); details: up to 50 μM
T3 sequence (P05177 1-516): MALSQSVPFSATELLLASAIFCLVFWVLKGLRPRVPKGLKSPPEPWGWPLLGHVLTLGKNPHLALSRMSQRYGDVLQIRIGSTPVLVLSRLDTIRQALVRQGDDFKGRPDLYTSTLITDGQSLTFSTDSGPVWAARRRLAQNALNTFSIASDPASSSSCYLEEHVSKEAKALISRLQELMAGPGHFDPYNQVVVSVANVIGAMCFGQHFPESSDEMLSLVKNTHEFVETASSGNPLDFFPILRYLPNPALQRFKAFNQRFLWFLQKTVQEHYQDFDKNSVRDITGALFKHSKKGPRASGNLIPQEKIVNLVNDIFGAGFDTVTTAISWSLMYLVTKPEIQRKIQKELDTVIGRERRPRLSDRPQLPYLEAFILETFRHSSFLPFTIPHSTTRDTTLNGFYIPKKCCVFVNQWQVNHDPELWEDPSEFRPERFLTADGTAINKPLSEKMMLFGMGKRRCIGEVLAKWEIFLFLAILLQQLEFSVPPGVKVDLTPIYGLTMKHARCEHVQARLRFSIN

CYP3A4 [4] = molecular target: T2, CYP3A4; test: Effect of POH on fimasartan (FMS) metabolism in pooled HLMs: CYP3A4-mediated BR-A-557 formation; format: in vitro ADME; details: FMS 30 μM, 100 μM (−)-POH
Procedure: (§1) The substrates were applied at a concentration that approximated their Km values. The reactions were preincubated for 5 min before being initiated with the addition of 1 mM NADPH. After 10 min incubation, reactions containing atorvastatin, buspirone, FMS, or nifedipine were terminated by the addition of 200 μL of ice-cold acetonitrile with 100 nM carbamazepine as an internal standard. For terminating reactions with donepezil or tadalafil, 200 μL of ice-cold methanol containing 0.5% (v/v) formic acid and 1 μM carbamazepine as internal standard was added to samples. […] The experiment was performed using three separate samples.

CYP2A6 [5] = molecular target: T1, CYP2A6; test: biochemical
Procedure: as §2, §3

CYP2C9 = CYP2C9 (Homo sapiens, UniProt P11712); test: Effect of POH on fimasartan (FMS) metabolism in pooled HLMs: CYP2C9-mediated hydroxy butyl FMS formation; format: in vitro ADME; details: FMS 30 μM, 95% CI in parentheses; for IC50: pooled HLMs, 10 min
CYP2C9, sequence (P11712 whole entry): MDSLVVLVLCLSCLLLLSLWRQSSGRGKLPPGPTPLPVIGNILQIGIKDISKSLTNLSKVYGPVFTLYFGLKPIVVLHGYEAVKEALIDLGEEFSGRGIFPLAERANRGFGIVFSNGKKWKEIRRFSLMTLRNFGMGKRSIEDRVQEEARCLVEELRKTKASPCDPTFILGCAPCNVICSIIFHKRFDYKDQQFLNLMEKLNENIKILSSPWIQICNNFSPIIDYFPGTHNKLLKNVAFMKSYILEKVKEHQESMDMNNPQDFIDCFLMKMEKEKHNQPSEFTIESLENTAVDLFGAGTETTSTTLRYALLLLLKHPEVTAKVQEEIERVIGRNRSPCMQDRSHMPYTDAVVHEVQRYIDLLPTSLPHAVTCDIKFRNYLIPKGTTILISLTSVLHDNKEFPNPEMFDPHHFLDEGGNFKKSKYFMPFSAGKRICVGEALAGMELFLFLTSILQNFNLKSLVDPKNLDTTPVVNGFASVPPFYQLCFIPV
Procedure: as §1

CYP3A4 [6] = molecular target: T2, CYP3A4; test: Effect of POH on the metabolism of other CYP3A4 substrates in pooled HLMs; format: in vitro ADME; details: (−)-POH 3.2–100 μM, substrates near Km
Procedure: as §1

CYP2B6 [7] = molecular target: T4, CYP2B6 (Homo sapiens, UniProt P20813); test: Determination of CYP inhibition mode and Ki in pooled HLMs, CYP2B6-mediated bupropion hydroxylation
T4 sequence (P20813 1-491): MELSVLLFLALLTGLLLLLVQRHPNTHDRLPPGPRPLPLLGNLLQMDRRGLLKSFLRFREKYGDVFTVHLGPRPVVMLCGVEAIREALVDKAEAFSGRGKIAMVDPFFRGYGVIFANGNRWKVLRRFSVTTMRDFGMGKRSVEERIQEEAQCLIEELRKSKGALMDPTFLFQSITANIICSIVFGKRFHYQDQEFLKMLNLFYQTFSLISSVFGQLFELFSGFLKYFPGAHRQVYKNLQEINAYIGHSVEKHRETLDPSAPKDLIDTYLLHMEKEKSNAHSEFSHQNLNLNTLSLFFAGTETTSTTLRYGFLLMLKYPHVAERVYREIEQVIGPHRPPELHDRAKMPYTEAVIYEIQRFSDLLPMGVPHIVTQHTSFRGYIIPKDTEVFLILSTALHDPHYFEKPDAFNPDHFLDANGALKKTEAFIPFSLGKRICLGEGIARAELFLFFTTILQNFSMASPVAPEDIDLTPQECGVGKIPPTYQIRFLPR
Procedure: as §2, §3

CYP2B6 [8] = molecular target: T4, CYP2B6; test: biochemical
Procedure: as §2, §3

[9] = best fit by AICc and Sy.x, Dixon plots

For `C=C(C)[C@@H]1CC=C(CO)CC1` [(−)-POH, (−)-perillyl alcohol], the IC50 (CYP2A6 [1]; IC50, pre-incubation with NADPH, 30 min pre-incubation with NADPH) was 23.4 µM, the IC50 (CYP2A6 [1]; IC50, pre-incubation without NADPH, 30 min pre-incubation without NADPH) was 24.3 µM and the “IC50 fold-shift, CYP2A6” value (CYP2A6 [1]; IC50 without NADPH/IC50 with NADPH) was 1.04. The “Formation of 1′-OH-MDZ relative to control without (−)-POH” value (CYP3A4 [2]; human, 10 min, 50 μM, pH 7.4) was 1.83 fold, the “Effect on CYP3A4 (midazolam) activity, MDZ 1′-hydroxylation” value (CYP3A4 [2]; pooled HLMs, substrate midazolam, test compound 0–50 μM) was “Stimulation *” and the “Type of inhibition, CYP2A6” value (CYP2A6 [3]; [9]) was “mixed inhibition model”. For the same molecule, the “Ki, CYP2A6, uncompetitive model (not selected)” value (CYP2A6 [3]; pooled HLMs, coumarin, 95% CI in parentheses) was 10.9 (9.16–12.9) μM, the “Inhibition of CYP1A2 activity” value (CYP1A2) was “not significantly inhibited” and the “BR-A-557 formation from FMS relative to the control” value (CYP3A4 [4]) was 1.29 fold. It also gave a Ki (CYP2A6 [5]) of 6.35 µM, an IC50 (CYP2C9; IC50 against formation of 1-hydroxy butyl FMS) of 123 µM and an IC50 (CYP2C9; IC50 against formation of 4-hydroxy butyl FMS) of 63 µM. For the same molecule, the IC50 at 10 min (CYP2C9; human, pooled human liver microsomes, pH 7.4, pooled HLMs, read-out: IC50 against formation of 2- or 3-hydroxy butyl FMS) was 62 µM, the “Effect on CYP3A4-mediated metabolism of atorvastatin, buspirone, donepezil, nifedipine, and tadalafil” value (CYP3A4 [6]) was “did not significantly affect” and the “Type of inhibition, CYP2B6” value (CYP2B6 [7]; [9]) was “mixed inhibition model”. The “Ki, CYP2B6, uncompetitive model (not selected)” value (CYP2B6 [7]; pooled HLMs, bupropion, 95% CI in parentheses) was 4.54 (3.62–5.56) μM and the Ki (CYP2B6 [8]) was 3.78 µM.
